Columns and labels:
[1] = system: mice with cough induced from aqueous ammonia; test: Cough relieving effect of singly administered compounds in mice with cough induced from aqueous ammonia; assay type: in vivo, male KM mice; details: example compounds 7.44 μmol/ml, codeine phosphate 0.47 μmol/ml; for Coughs: coughs counted in 3 min after 15 s atomized 25% aqueous ammonia, 1 hr after administration, intragastric gavage or intraperitoneal injection, 0.2 ml/10 g body weight, mean ± spread; for Cough relieving rate: relative to blank group (17.8 ± 5.4 coughs), same dosing as Coughs, 0.2 ml/10 g
From the text: II. Test on Cough Relieving Effect of Singly Administered Example Compounds of the Present Invention in Mice with Cough Induced from Aqueous Ammonia
1. Test animals: male KM mice (available from Guangdong Medical Laboratory Animal Center, Certificate No.: SCXK (Guangdong) 2008-0002, No. 0113738).
2. Test groups and treatment with drugs: Blank control group: treatment with 50% (v/v) PEG400 in physiological saline.
Treatment group with codeine phosphate as positive control—Codeine phosphate (Lott 20091212) is manufactured by Qinghai Pharmaceutical Co., Ltd. Before test, powdered codeine phosphate was added to 50% (v/v) PEG400 in physiological saline, to formulate a 0.47 μmol/ml solution.
Eligible male KM mice were randomly designated to a blank control group, and treatment groups with codeine phosphate as positive control and with example compounds, according to […].
The animals in each group were administered by intragastric gavage or intraperitoneal injection at a dosage of 0.2 ml/10 g of body weight, and placed in a cough inducing chamber 1 hr after administration. 1 ml of 25% concentrated aqueous ammonia was added to an atomizing cup and atomized for 15 s (at a rate of 0.15 ml/min). The coughs in 3 min were counted (during the typical cough, the mouth was opened and the head was lowered, which were accompanied by quivering of the neck and frequently a forward rushing).
Statistical analysis of data—Statistical analysis of all the data was conducted by SPSS 17.0 after the outliers were excluded by t test. Analysis of variance was performed by one-way ANOVA, multiple comparisons between the blank control group and each treatment group were carried out by Dunnett test, and the pairwise multiple comparisons between each treatment group and the codeine phosphate group were conducted by Duncan test.

Compound	Coughs [1]	Cough relieving rate [1] [%]	melting point [°C]
CCCc1c(O)cc2c(c1O)C(=O)CC(c1ccc(O)cc1)O2 (centres unmarked) [Example 2, 6-n-propyl-2,3-dihydro-5,7-dihydroxy-2-(4-hydroxyphenyl)chromen-4-one]	12.4 ± 4.6	30.16	173 to 175
C=CCc1c(O)c(Br)c(O)c2c1OC(c1ccc(O)cc1)CC2=O (centres unmarked) [Example 3, 8-allyl-6-bromo-2,3-dihydro-5,7-dihydroxy-2-(4-hydroxyphenyl)chromen-4-one]	11.2 ± 6.2	37.28	203 to 205
C=CCc1c(O)c(Br)c2c(c1O)C(=O)CC(c1ccc(O)cc1)O2 (centres unmarked) [Example 4, 6-allyl-8-bromo-2,3-dihydro-5,7-dihydroxy-2-(4-hydroxyphenyl)chromen-4-one]	11.0 ± 4.1	38.03	158 to 160
C=CCc1c(O)c(Cl)c2c(c1O)C(=O)CC(c1ccc(O)cc1)O2 (centres unmarked) [Example 5, 6-allyl-8-chloro-2,3-dihydro-5,7-dihydroxy-2-(4-hydroxyphenyl)chromen-4-one]	11.8 ± 7.3	33.49	158 to 160
CCCc1c(O)c(Cl)c(O)c2c1OC(c1ccc(O)cc1)CC2=O (centres unmarked) [Example 6, 6-chloro-2,3-dihydro-5,7-dihydroxy-2-(4-hydroxyphenyl)-8-propylchromen-4-one]	9.1 ± 3.9	49.06	175 to 176
C=CCc1c(O)c(Cl)c(O)c2c1OC(c1ccc(O)cc1)CC2=O (centres unmarked) [Example 7, 8-allyl-6-chloro-2,3-dihydro-5,7-dihydroxy-2-(4-hydroxyphenyl)chromen-4-one]	10.5 ± 5.8	40.85	215 to 216
C=CCc1c(O)c(O)c2c(c1O)C(=O)CC(c1ccc(O)cc1)O2 (centres unmarked) [Example 8, 6-allyl-2,3-dihydro-5,7,8-Trihydroxy-2-(4-hydroxyphenyl)chromen-4-one]	10.2 ± 2.6	42.64	95 to 100
CCCc1c(O)c(Cl)c2c(c1O)C(=O)CC(c1ccc(O)cc1)O2 (centres unmarked) [Example 9, 8-Chloro-2,3-dihydro-5,7-dihydroxy-2-(4-hydroxyphenyl)-6-propylchromen-4-one]	10.7 ± 4.2	39.82	175 to 176
C=CCc1c(O)c(I)c2c(c1O)C(=O)CC(c1ccc(O)cc1)O2 (centres unmarked) [Example 10, 8-iodo-2,3-dihydro-5,7-dihydroxy-2-(4-hydroxyphenyl)-6-allylchromen-4-one]	12.2 ± 4.0	31.24	218 to 220
O=CCc1c(O)cc(O)c2c1O[C@H](c1ccc(O)cc1)CC2=O [Example 11, Naringenin-8-acetaldehyde]	11.4 ± 6.5	35.78	150 to 155
O=CCc1c(O)cc2c(c1O)C(=O)C[C@@H](c1ccc(O)cc1)O2 [Example 12, Naringenin-6-acetaldehyde]	9.3 ± 4.3	47.59	178 to 180
O=C(O)Cc1c(O)c(Cl)c(O)c2c1O[C@H](c1ccc(O)cc1)CC2=O [Example 13, 6-chloro-naringenin-8-acetic acid]	7.4 ± 3.4	58.43	185 to 186
O=C(O)Cc1c(O)c(Cl)c2c(c1O)C(=O)C[C@@H](c1ccc(O)cc1)O2 [Example 14, 8-chloro-naringenin-6-acetic acid]	9.3 ± 3.9	47.59	185 to 186
O=C(O)Cc1c(O)cc(O)c2c1O[C@H](c1ccc(O)cc1)CC2=O [Example 15, Naringenin-8-acetic acid]	8.3 ± 5.8	53.31	245 to 247
COc1ccc2c3c1O[C@H]1[C@@H](O)C=C[C@H]4[C@@H](C2)N(C)CC[C@@]341 [codeine phosphate, reference compound]	10.8 ± 3.5	39.60	
